# Source: patent publication US4056629A, “Pharmacologically active O-acyl-2,3-diaryl-3-halogeno-acryl-aldoximes” (Hoechst Aktiengesellschaft, priority 1975, dated 1977)
# Assays:
# [1] = tested on: gout-like disturbance of the purine metabolism; experiment: 3-day cycle in the oxonate rat (uric acid in urine on days 1-3 and in serum on day 3); type: in vivo, white male Wistar rats; settings: for Serum Uric acid conc.: third day, * statistically significant p < 0.05 (Duncan test)
# Protocol: (§1) The uricosuric and hypouricemic effects were observed by way of experiment on the oxonate rat. In this experimental test arrangement the uricase activity of the rat liver was inhibited by the administration of potassium oxonate, thus producing a gout-like disturbance of the purine metabolism. The effect was tested in the following test arrangement:
# 2. The influence on the gout-like metabolism disturbance which had been induced by way of experiment was also examined in a 3-day cycle. For this purpose, the animals (white male Wistar rats) were placed into the metabolism cages 18 hours prior to the start of the experiment. The animals drank water, and they were offered a special fodder mixture to consume ad libitum. The composition of the fodder mixture was as follows: 5 % of fructose, 3% of uric acid, 2 % of potassium oxonate, and 100 mg of synthetic sweetening agent (acesulfame) per 1 kg of body weight. On the first and second days of the experiment, the compositions were administered to the animals, in a 0.5 % potassium-oxanate solution, into the stomach by way of an esophagal sound. The urine samples were examined on the first, second and third days of the experiment, and the serum samples were tested for their uric acid content on the third day of the experiment.
# In Table 4 the results following the application of allopurinol (as comparative substance) have been indicated in the above-mentioned experimental scheme.
# [2] = tested on: gout-like disturbance of the purine metabolism; experiment: 24-hour test in the oxonate rat (uric acid, urine volume, pH and Na+ after potassium oxonate); type: in vivo, male Wistar rats; settings: for Uric acid serum (-x (mg %) ± SD): control 5.41 + 0.66, * statistically significant (U test); for Activity in words (heading of Table 2): Example 14 combined with the increase of diuresis and the excretion of sodium
# Protocol: as §1
# 1. The influence on the gout-like disturbance of the purine metabolism which had been induced by way of experiment was tested in a 24 hour test. In this test arrangement, the animals are given the substances in a 0.5 % potassium-oxonate solution into the stomach by means of an esophagal sound, after water and fodder had been withheld for 18 hours. During the entire test period, the animals are given the 0.5 % potassium-oxonate solution ad libitum. After 8 hours, they are additionally given 5 ml of water per 100 g of body weight into the stomach, by way of an esophagal sound. After 24 hours urine samples were taken, the animals were killed in a narcosis produced by ether, and the blood and urine were analysed for the content of uric acid. In addition, the creatinine concentration, the sodium, potassium and chloride concentration in the urine and serum samples were determined.
# [3] = Table 3, 3 mg/kg, 1st day, oxonate control 3.38
# [4] = Table 3, 3 mg/kg, 1st day, oxonate control 42.5
# [5] = Table 3, 3 mg/kg, 2nd day, oxonate control 3.83
# [6] = Table 3, 3 mg/kg, 2nd day, oxonate control 42.9
# [7] = Table 3, 3 mg/kg, 3rd day, oxonate control 5.17
# [8] = Table 3, 3 mg/kg, 3rd day, oxonate control 48.8
# [9] = Table 3, 3 mg/kg, oxonate control 5.49
# [10] = Table 2 II, 0.3 mg/kg, control = 100
# [11] = Table 2 II, 3.0 mg/kg, control = 100
# [12] = Table 2 I, 3 mg/kg, oxonate control group = 100
smiles,measurement,setting,value
"Oc1ncnc2[nH]ncc12 [Allo, Allopurinol, reference compound]",Urine Amount of uric acid,"[1]; Table 4, 50 mg/kg, 1st day, oxonate control 0.80",0.91 mg/24 h
same,Urine Uric acid conc.,"[1]; Table 4, 50 mg/kg, 1st day, oxonate control 11.3",11.6 mg %
same,Urine Amount of uric acid,"[1]; Table 4, 50 mg/kg, 2nd day, oxonate control 2.6",2.1 mg/24 h
same,Urine Uric acid conc.,"[1]; Table 4, 50 mg/kg, 2nd day, oxonate control 23.9",18.7 mg %
same,Urine Amount of uric acid,"[1]; Table 4, 50 mg/kg, 3rd day, oxonate control 3.4",3.8 mg/24 h
same,Urine Uric acid conc.,"[1]; Table 4, 50 mg/kg, 3rd day, oxonate control 36.4",31.6 mg %
same,Serum Uric acid conc.,"[1]; Table 4, 50 mg/kg, oxonate control 6.7",6.2 mg %
same,Urine Amount of uric acid,"[1]; Table 4, 100 mg/kg, 1st day, oxonate control 0.80",0.9 mg/24 h
same,Urine Uric acid conc.,"[1]; Table 4, 100 mg/kg, 1st day, oxonate control 11.3",12.7 mg %
same,Urine Amount of uric acid,"[1]; Table 4, 100 mg/kg, 2nd day, oxonate control 2.6",2.0 mg/24 h
same,Urine Uric acid conc.,"[1]; Table 4, 100 mg/kg, 2nd day, oxonate control 23.9",19.9 mg %
same,Urine Amount of uric acid,"[1]; Table 4, 100 mg/kg, 3rd day, oxonate control 3.4",3.7 mg/24 h
same,Urine Uric acid conc.,"[1]; Table 4, 100 mg/kg, 3rd day, oxonate control 36.4",28.2 mg %
same,Serum Uric acid conc.,"[1]; Table 4, 100 mg/kg, oxonate control 6.7",5.2 mg %
"O=C(ON=CC(=C(Br)c1ccccc1)c1ccccc1)c1ccccc1 [Example 5, O-benzoyl-2-phenyl-3-bromo-cinnamic aldoxime]",Urine Amount of uric acid,[1]; [3],2.59 mg/24 h
same,Urine Uric acid conc.,[1]; [4],38.9 mg %
same,Urine Amount of uric acid,[1]; [5],2.41 mg/24 h
same,Urine Uric acid conc.,[1]; [6],32.4 mg %
same,Urine Amount of uric acid,[1]; [7],3.68 mg/24 h
same,Urine Uric acid conc.,[1]; [8],34.7 mg %
same,Serum Uric acid conc.,[1]; [9],4.07 mg %
"CC(=O)ON=CC(=C(Br)c1ccccc1)c1ccccc1 [Example 6, O-acetyl-2-phenyl-3-bromo-cinnamic aldoxime]",Urine Amount of uric acid,[1]; [3],2.40 mg/24 h
same,Urine Uric acid conc.,[1]; [4],33.4 mg %
same,Urine Amount of uric acid,[1]; [5],2.96 mg/24 h
same,Urine Uric acid conc.,[1]; [6],32.8 mg %
same,Urine Amount of uric acid,[1]; [7],2.98 mg/24 h
same,Urine Uric acid conc.,[1]; [8],32.7 mg %
same,Serum Uric acid conc.,[1]; [9],3.65 mg %
"CCCCCCCCCC(=O)ON=CC(=C(Br)c1ccccc1)c1ccccc1 [Example 7, O-caprinoyl-2-phenyl-3-bromo-cinnamic aldoxime]",Urine Amount of uric acid,[1]; [3],2.78 mg/24 h
same,Urine Uric acid conc.,[1]; [4],36.4 mg %
same,Urine Amount of uric acid,[1]; [5],2.99 mg/24 h
same,Urine Uric acid conc.,[1]; [6],31.8 mg %
same,Urine Amount of uric acid,[1]; [7],2.74 mg/24 h
same,Urine Uric acid conc.,[1]; [8],31.2 mg %
same,Serum Uric acid conc.,[1]; [9],4.03 mg %
"CCCCCCCCCC(=O)ON=CC(=C(Cl)c1ccc(OC)cc1)c1ccc(OC)cc1 [Example 8, O-caprinoyl-2-(4-methoxyphenyl)-3-chloro-p-methoxy-cinnamic aldoxime]",Uric acid excretion (-x ± SD),"[2]; Table 2 II, 0.3 mg/kg, control 2.74 + 1.43",3.25 + 1.68 mg/24 hr./100 g b. wt.
same,Uric acid serum (-x (mg %) ± SD),"[2]; Table 2 II, 0.3 mg/kg",5.00 + 0.54 mg %
same,"Uric acid excretion, % control",[2]; [10],118 % control
same,"Uric acid serum, % control",[2]; [10],92 % control
same,Uric acid excretion (-x ± SD),"[2]; Table 2 II, 3.0 mg/kg, control 2.74 + 1.43",2.46 + 1.19 mg/24 hr./100 g b. wt.
same,Uric acid serum (-x (mg %) ± SD),"[2]; Table 2 II, 3.0 mg/kg",4.81 + 0.74 mg %
same,"Uric acid excretion, % control",[2]; [11],89 % control
same,"Uric acid serum, % control",[2]; [11],88 % control
same,Activity in words (heading of Table 2),[2]; oxonate rat,uricosuric and hypouricemic activity
"O=C(Nc1ccccc1)ON=CC(=C(Br)c1ccccc1)c1ccccc1 [Example 14, 2-phenyl-3-bromo-cinnamic aldoxime-O-(N-phenyl)-carbamate]",Amount of urine Na+,"[2]; Table 2 I, 3 mg/kg, control 0.09 + 0.03",0.11 + 0.02 mg/24 hr/100 g b. wt.
same,Amount of urine excreted (-x + SD),"[2]; Table 2 I, 3 mg/kg, control 7.1 + 2.1",9.3 + 3.06 ml/24 hr./100 g b. wt.
same,urine pH,"[2]; Table 2 I, 3 mg/kg, control 7.5 + 0.2, * statistically significant (Scheffe test)",7.2 + 0.08
same,"Amount of urine excreted, % control",[2]; [12],130 % control
same,"Uric acid excretion, % control",[2]; [12],118 % control
same,Uric acid excretion (-x ± SD),"[2]; Table 2 I, oxonate rat, 3 mg/kg, into the stomach",3.52 ± 1.11 mg/24 hr./100 g b. wt.
same,Activity in words (heading of Table 2),[2]; oxonate rat,uricosuric activity
